Consider 17 compounds from ChEMBL document CHEMBL4732135, “Structural and mechanistic insights into the inhibition of amyloid-β aggregation by Aβ fragment derived synthetic peptides” (Eur J Med Chem, 2021).

Square brackets hold non-standard residues; d marks the D form. Peptide text beside a SMILES is read from it. ξ: configuration not given here. Phe(4-CF3) = N[C@@H](Cc1ccc(C(F)(F)F)cc1)C(=O)O; Oic(3aξ,7aξ) = O=C(O)[C@@H]1CC2CCCCC2N1; Phe(4-Me) = Cc1ccc(C[C@H](N)C(=O)O)cc1; Gly(cPent) = N[C@H](C(=O)O)C1CCCC1; Ala(cPr) = N[C@@H](CC1CC1)C(=O)O; NMeF = CN[C@@H](Cc1ccccc1)C(=O)O; NMeI = CC[C@H](C)[C@H](NC)C(=O)O; 4Pal = N[C@@H](Cc1ccncc1)C(=O)O; NMeL = CN[C@@H](CC(C)C)C(=O)O; Tle = CC(C)(C)[C@H](N)C(=O)O; β3hP = O=C(O)C[C@@H]1CCCN1; Abu = CC[C@H](N)C(=O)O; βAla = NCCC(=O)O

Data set [1] concerns PC-12. Nature of the data set: Cytotoxicity against rat PC-12 cells assessed as reduction in cell viability at 20 uM measured after 6 hrs by MTT assay. In kind it is cell-based. To be noted: pc-12, 6 h. Background: Tetrazolium assays rely on reduction of a dye to a coloured formazan, in cell work by metabolically active cells.
For data set [2], the system named is Cortical neurone. Description: Cytotoxicity against rat primary cortical neuron assessed as reduction in cell viability at 20 uM measured after 6 hrs by MTT assay. In kind it is cell-based.
The test system of data set [3] is PC-12. Nature of the data set: Neuroprotective activity against amyloid beta 42-induced toxicity in rat PC-12 cells assessed as cell viability at 4 uM measured after 6 hrs by MTT assay (reference value: 74.05%). Format: functional. The following applies: read-out: Activity.
Data set [4] deals with PC-12. Nature of the data set: Neuroprotective activity against amyloid beta 42-induced toxicity in rat PC-12 cells assessed as cell viability at 10 uM measured after 6 hrs by MTT assay (reference value: 74.05%). In kind it is functional. The following applies: read-out: Activity.
Data set [5] concerns the target Amyloid-beta precursor protein (Homo sapiens) (UniProt P05067). Description: Inhibition of amyloid beta (1 to 42) (unknown origin) assessed as reduction in peptide aggregation at 10 uM measured after 24 hrs by thioflavin-T fluorescence assay relative to control.
Data set [6] has the same target. Nature of the data set: Inhibition of amyloid beta (1 to 42) (unknown origin) assessed as reduction in peptide aggregation at 2 uM measured after 24 hrs by thioflavin-T fluorescence assay relative to control.
Data set [7] deals with PC-12. Description: Neuroprotective activity against amyloid beta 42-induced toxicity in rat PC-12 cells assessed as cell viability at 2 uM measured after 6 hrs by MTT assay (reference value: 74.05%). Format: functional. To be noted: read-out: Activity.
Data set [8] has as its target Amyloid-beta precursor protein (Homo sapiens) (UniProt P05067). Nature of the data set: Inhibition of amyloid beta (1 to 42) (unknown origin) assessed as reduction in peptide aggregation at 4 uM measured after 24 hrs by thioflavin-T fluorescence assay relative to control.
The nature of data set [9]: Effective permeability of compound in pH 8 PBS buffer by PAMPA-BBB assay. In kind it is ADME. Background: PAMPA measures passive passage across an artificial lipid membrane.

Sequence of Amyloid-beta precursor protein (Homo sapiens) (P05067 whole entry): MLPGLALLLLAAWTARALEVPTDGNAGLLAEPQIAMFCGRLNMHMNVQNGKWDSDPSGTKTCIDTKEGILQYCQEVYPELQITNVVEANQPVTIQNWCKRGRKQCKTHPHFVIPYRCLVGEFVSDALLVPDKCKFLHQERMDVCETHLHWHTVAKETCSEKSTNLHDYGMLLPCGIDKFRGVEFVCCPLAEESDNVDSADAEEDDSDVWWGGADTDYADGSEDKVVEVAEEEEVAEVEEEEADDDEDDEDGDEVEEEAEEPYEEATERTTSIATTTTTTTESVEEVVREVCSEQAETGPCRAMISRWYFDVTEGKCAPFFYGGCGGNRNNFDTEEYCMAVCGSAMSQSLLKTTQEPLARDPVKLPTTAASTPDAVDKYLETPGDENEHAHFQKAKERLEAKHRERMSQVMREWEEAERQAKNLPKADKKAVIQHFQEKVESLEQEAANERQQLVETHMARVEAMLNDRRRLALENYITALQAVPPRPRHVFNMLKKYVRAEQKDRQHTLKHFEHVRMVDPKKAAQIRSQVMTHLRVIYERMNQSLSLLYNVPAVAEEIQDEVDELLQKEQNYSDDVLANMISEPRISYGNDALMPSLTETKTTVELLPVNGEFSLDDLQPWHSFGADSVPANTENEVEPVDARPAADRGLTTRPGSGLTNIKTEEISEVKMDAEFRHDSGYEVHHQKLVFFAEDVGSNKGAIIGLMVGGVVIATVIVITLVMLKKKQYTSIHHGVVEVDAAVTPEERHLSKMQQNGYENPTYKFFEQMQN

As for `CC[C@H](C)[C@H](NC(=O)[C@@H](NC(=O)[C@@H](N)C(C)C)C(C)C)C(=O)N[C@@H](CC(=O)O)C(=O)O` (H-VVID-OH), the Activity result in [1] and in data set [2] was “Non-Toxic” throughout. Moreover, the viability at 4 µM in [3] was determined as 98.7%. For the same compound, in data set [4], the viability at 10 µM came to 95.8%. The inhibition was found to be 100% in data set [5], 82% in [6] and 100% in [8]. For the same compound, the viability at 2 µM in data set [7] amounted to 100%.
As for `CC[C@H](C)[C@H](NC(=O)[C@@H](NC(=O)[C@H](Cc1ccccc1)NC)C(C)C)C(=O)N[C@@H](C)C(=O)O` (H-[NMeF]VIA-OH), in data set [9], the Peff result was “Permeable”. The viability at 4 µM in [3] is 81%. For the same compound, the viability at 10 µM in data set [4] turned out to be 100%. In addition, the inhibition in data set [5] turned out to be 100%; in data set [6], 84.8%; in [8], 94.3%. Moreover, the viability at 2 µM in data set [7] was 86.1%.
For the compound `CC[C@H](C)[C@H](NC(=O)[C@H](Cc1ccccc1)NC(=O)[C@@H](N)Cc1ccccc1)C(=O)N[C@@H](C)C(=O)O` (H-FFIA-OH), the Activity result in data set [1] and in [2] was “Non-Toxic” throughout. Also, the Peff entry in [9] was “Permeable”. Further, the viability at 4 µM in data set [3] came to 100%. In data set [4], the viability at 10 µM is 83.8%. In addition, the results for the inhibition in data set [5], in data set [6] and in [8] were 100%, 92.2% and 97.2%, respectively. The viability at 2 µM in data set [7] stood at 98%.
As to `CC[C@H](C)[C@H](NC(=O)[C@@H](NC(=O)[C@@H](N)Cc1ccc(C(F)(F)F)cc1)C(C)C)C(=O)N[C@@H](C)C(=O)O` (H-[Phe(4-CF3)]VIA-OH), the viability at 4 µM in data set [3] was determined as 88.7%. Also, the viability at 10 µM in data set [4] stood at 86.2%. Further, the inhibition in data set [5] was found to be 4.5%; in [6], 41.8%; in [8], 20.4%. Besides, the viability at 2 µM in data set [7] was determined as 92.1%.
Turning to `CC[C@H](C)[C@H](NC(=O)[C@@H](NC(=O)[C@@H](N)Cc1ccc(C)cc1)C(C)C)C(=O)N[C@@H](C)C(=O)O` (H-[Phe(4-Me)]VIA-OH), the viability at 4 µM in data set [3] came to 68.4%. The viability at 10 µM in data set [4] came to 72.6%. The inhibition was determined as 26.8% in data set [5], 0% in [6] and 3.2% in [8]. Besides, in data set [7], the viability at 2 µM worked out at 71.7%.
For `CC(C)[C@H](N)C(=O)N[C@H](C(=O)N[C@@H](CC1CC1)C(=O)N[C@@H](C)C(=O)O)C(C)C` (H-VV[Ala(cPr)]A-OH), the viability at 4 µM in [3] came to 77%. Besides, the viability at 10 µM in [4] amounted to 65.9%. Besides, the inhibition in [5], in [6] and in [8] was 0% in each case. For the same compound, the viability at 2 µM in data set [7] stood at 68.4%.
Consider `CC[C@H](C)[C@H](NC(=O)[C@@H](NC(=O)[C@@H](N)Cc1ccncc1)C(C)C)C(=O)N[C@@H](C)C(=O)O` (H-[4Pal]VIA-OH), for which the viability at 4 µM in data set [3] was determined as 78.2%. Further, the viability at 10 µM in [4] came out at 96.8%. In addition, the inhibition in data set [5] is 46%; in [6], 42.7%; in data set [8], 44.2%. Also, the viability at 2 µM in [7] amounted to 82%.
Take `CC(C)[C@H](N)C(=O)N[C@H](C(=O)N[C@H](C(=O)N[C@@H](C)C(=O)O)C1CCCC1)C(C)C` (H-VV[Gly(cPent)]A-OH): the viability at 4 µM in [3] turned out to be 91.9%. Besides, the viability at 10 µM in data set [4] came out at 84.2%. For the same compound, the inhibition turned out to be 47.8% in data set [5], 17.1% in data set [6] and 40.3% in [8]. Further, the viability at 2 µM in [7] was 85.6%.
As to `CC[C@H](C)[C@@H](C(=O)N[C@@H](C)C(=O)O)N(C)C(=O)[C@@H](NC(=O)[C@@H](N)C(C)C)C(C)C` (H-VV[NMeI]A-OH), the Peff result in data set [9] is “Permeable”. Moreover, the viability at 4 µM in data set [3] stood at 92.9%. In addition, in data set [4], the viability at 10 µM amounted to 100%. For the same compound, the results for the inhibition in [5], in data set [6] and in data set [8] were 100%, 80.6% and 83.4%, respectively. In data set [7], the viability at 2 µM was 88.4%.
On to `CC[C@H](C)[C@H](NC(=O)[C@@H](NC(=O)[C@@H](N)C(C)C)C(C)C)C(=O)N[C@@H](C)C(=O)O` (H-VVIA-OH), for which the Peff result in data set [9] was “Permeable”. For the same compound, in data set [3], the viability at 4 µM was 90.5%. Further, the viability at 10 µM in data set [4] stood at 93.6%. In addition, the inhibition is 66.2% in data set [5], 33.9% in data set [6] and 60.6% in [8]. Further, the viability at 2 µM in data set [7] was found to be 78.9%.
On to `CC[C@H](C)[C@H](NC(=O)[C@@H](NC(=O)[C@@H](N)C(C)C)C(C)C)C(=O)N[C@@H](CCC(=O)O)C(=O)O` (H-VVIE-OH), for which the viability at 4 µM in [3] amounted to 76.3%. Moreover, the viability at 10 µM in [4] is 84.9%. Also, the inhibition was determined as 65.1% in data set [5], 38.8% in data set [6] and 39.3% in data set [8]. For the same compound, the viability at 2 µM in data set [7] worked out at 68.9%.
For the compound `CC[C@H](C)[C@H](NC(=O)C[C@@H]1CCCN1C(=O)C[C@@H]1CCCN1)C(=O)N[C@@H](C)C(=O)O` (H-[β3hP][β3hP]IA-OH), the viability at 4 µM in [3] turned out to be 75.5%. Also, the viability at 10 µM in [4] came out at 100%. Also, the results for the inhibition in data set [5], in data set [6] and in [8] were 100%, 78.9% and 89.7%, respectively. The viability at 2 µM in [7] was 97.9%.
For the compound `CC(C)[C@H](N)C(=O)N[C@H](C(=O)N1C2CCCCC2C[C@H]1C(=O)N[C@@H](C)C(=O)O)C(C)C` (some centres not stated) (H-VV[Oic(3aξ,7aξ)]A-OH), in data set [3], the viability at 4 µM amounted to 78.4%. In addition, in [4], the viability at 10 µM worked out at 86.1%. Besides, the inhibition amounted to 46.4% in data set [5], 37.2% in [6] and 19.3% in data set [8]. In addition, the viability at 2 µM in data set [7] is 60%.
Take `CC[C@H](C)[C@H](NC(=O)[C@@H](NC(=O)[C@@H](N)C(C)C)C(C)(C)C)C(=O)N[C@@H](C)C(=O)O` (H-V[Tle]IA-OH): the viability at 4 µM in data set [3] was found to be 91.3%. In addition, the viability at 10 µM in data set [4] is 100%. Also, the inhibition in data set [5], in data set [6] and in data set [8] was 100% throughout. Further, in data set [7], the viability at 2 µM amounted to 89.3%.
Regarding `CC(C)C[C@@H](C(=O)N[C@@H](C)C(=O)O)N(C)C(=O)[C@@H](NC(=O)[C@@H](N)C(C)C)C(C)C` (H-VV[NMeL]A-OH), the viability at 4 µM in [3] stood at 87.2%. Moreover, the viability at 10 µM in data set [4] was 84.8%. The inhibition turned out to be 61% in [5], 31.6% in data set [6] and 44.1% in data set [8]. The viability at 2 µM in data set [7] amounted to 96.3%.
Take `CC[C@H](C)[C@H](NC(=O)[C@@H](NC(=O)[C@@H](N)C(C)C)C(C)C)C(=O)NCCC(=O)O` (H-VVI[βAla]-OH): the viability at 4 µM in data set [3] was found to be 93.1%. The viability at 10 µM in [4] is 87.3%. In addition, the inhibition in data set [5] turned out to be 13%; in data set [6], 0%; in data set [8] it was 0%. In addition, the viability at 2 µM in data set [7] amounted to 97.8%.
Consider `CC[C@H](NC(=O)[C@@H](N)CC)C(=O)N[C@H](C(=O)N[C@@H](C)C(=O)O)[C@@H](C)CC` (H-[Abu][Abu]IA-OH), for which the Activity entry in data set [1] and in [2] was “Non-Toxic” in each case. Further, the viability at 4 µM in data set [3] was 100%. Further, the viability at 10 µM in data set [4] is 92.1%. For the same compound, the figures for the inhibition in data set [5], in data set [6] and in data set [8] were 88.7%, 97.7% and 90.2%, respectively. In addition, the viability at 2 µM in [7] was determined as 100%.

The term inhibition denotes the drop in the measured response relative to a control, in per cent.
